# From patent US9708314B2, “Heterocyclic amide compound” (NISSAN CHEMICAL INDUSTRIES, LTD., priority 2013, dated 2017)
# Assays:
# Format in all cases: in vivo
# [1] = tested on: directly sowed Oryza sativa; test: Test Example 4: effect on crop by application to foliage (diluvial soil, plastic box); details: application to foliage; for effect on crop, d (directly sowed Oryza sativa): 320 g/ha
# Description: (§1) 5 Herbicidal ratio of 90% or more (almost completely withered) 4 Herbicidal ratio of 70% or more and less than 90% 3 Herbicidal ratio of 40% or more and less than 70% 2 Herbicidal ratio of 20% or more and less than 40% 1 Herbicidal ratio of 5% or more and less than 20% 0 Herbicidal ratio of 5% or less (almost no effect) [Test Example 4] Herbicidal Effect Test by Application to Foliage Sterilized diluvial soil was placed in a plastic box having a length of 21 cm, a width of 13 cm, and a depth of 7 cm. Each of the seeds of Digitaria ciliaris, Setaria viridis, Echinochloa crus-galli var. crus-galli, Avena fatua, Alopecurus myosuroides, Lolium multiflorum Lam., Apera spica-venti., Abutilon theophrasti, Amaranthus retroflexus, Chenopodium album, Stellaria media, Galium spurium, Veronica persica, Zea mays, Glycine max, Oryza sativa, Triticum aestivum, Beta vulgaris ssp. vulgaris, and Brassica campestris L. was sowed in a spot-like manner and was covered with the soil of about 1.5 cm thick. Thereafter, the plants were grown in the greenhouse of 25° C. to 30° C. After the plants were grown for 14 days, the emulsion agent containing the compound of the present invention prepared in accordance with Formulation Example 2 was diluted with water so as to be a predetermined herbicide amount and the diluted compound was uniformly applied to a stem and leaf part with a small-size spray. Three weeks after the herbicide application, effects on each plant were investigated in accordance with the criteria of Test Example 1. A: Echinochloa oryzicola Vasing., B: Scirpus juncoides, C: Monochoria vaginalis, D: Leptochloa chinensis, E: Cyperus difformis, F: Digitaria ciliaris, G: Setaria viridis, H: Echinochloa crus-galli var. crus-galli, I: Avena fatua, J: Alopecurus myosuroides, K: Lolium multiflorum Lam., L: Apera spica-venti., M: Abutilon theophrasti, N: Amaranthus retroflexus, O: Chenopodium album, P: Stellaria media, Q: Galium spurium, R: Veronica persica, a: transplanted Oryza sativa, b: directly sowed Oryza sativa, c: Zea mays, d: Glycine max, e: Triticum aestivum, f: Beta vulgaris ssp. vulgaris, and g: Brassica campestris L. The application herbicide amount (g/ha) means an amount that a concentration is adjusted so that, when an application amount is converted into per hectare (1 ha), the herbicide is applied by the number of grams (g) of the described value.
# Zea mays = test: as above; details: application to foliage; for effect on crop, b (Zea mays): 320 g/ha
# Description: as §1
# Triticum aestivum = test: as above; details: application to foliage; for effect on crop, e (Triticum aestivum): 320 g/ha
# Description: as §1
# Brassica campestris L. = test: as above; details: application to foliage; for effect on crop, g (Brassica campestris L.): 320 g/ha
# Description: as §1
# Glycine max = test: as above; details: application to foliage; for effect on crop, c (Glycine max): 320 g/ha
# Description: as §1
# [2] = tested on: Beta vulgaris ssp. vulgaris; test: as above; details: application to foliage; for effect on crop, f (Beta vulgaris ssp. vulgaris): 320 g/ha
# Description: as §1
# [3] = tested on: Echinochloa crus-galli var. crus-galli; test: Test Example 4: herbicidal effect by application to foliage (diluvial soil, plastic box); details: application to foliage; for herbicidal effect, H (Echinochloa crus-galli var. crus-galli): 320 g/ha
# Description: as §1
# Setaria viridis = test: as above; details: application to foliage; for herbicidal effect, G (Setaria viridis): 320 g/ha
# Description: as §1
# Stellaria media = test: as above; details: application to foliage; for herbicidal effect, P (Stellaria media): 320 g/ha
# Description: as §1
# Avena fatua = test: as above; details: application to foliage; for herbicidal effect, I (Avena fatua): 320 g/ha
# Description: as §1
# Apera spica-venti. = test: as above; details: application to foliage; for herbicidal effect, L (Apera spica-venti.): 320 g/ha
# Description: as §1
# Digitaria ciliaris = test: as above; details: application to foliage; for herbicidal effect, F (Digitaria ciliaris): 320 g/ha
# Description: as §1
# Amaranthus retroflexus = test: as above; details: application to foliage; for herbicidal effect, N (Amaranthus retroflexus): 320 g/ha
# Description: as §1
# Chenopodium album = test: as above; details: application to foliage; for herbicidal effect, O (Chenopodium album): 320 g/ha
# Description: as §1
# Abutilon theophrasti = test: as above; details: application to foliage; for herbicidal effect, M (Abutilon theophrasti): 320 g/ha
# Description: as §1
# Alopecurus myosuroides = test: as above; details: application to foliage; for herbicidal effect, J (Alopecurus myosuroides): 320 g/ha
# Description: as §1
# Veronica persica = test: as above; details: application to foliage; for herbicidal effect, R (Veronica persica): 320 g/ha
# Description: as §1
# Galium spurium = test: as above; details: application to foliage; for herbicidal effect, Q (Galium spurium): 320 g/ha
# Description: as §1
# Lolium multiflorum Lam. = test: as above; details: application to foliage; for herbicidal effect, K (Lolium multiflorum Lam.): 320 g/ha
# Description: as §1
# [4] = application herbicide amount 320 g/ha
SMILES,"effect on crop, d (directly sowed Oryza sativa) [1]","effect on crop, b (Zea mays) (Zea mays)","effect on crop, e (Triticum aestivum) (Triticum aestivum)","effect on crop, g (Brassica campestris L.) (Brassica campestris L.)","effect on crop, c (Glycine max) (Glycine max)","effect on crop, f (Beta vulgaris ssp. vulgaris) [2]","herbicidal effect, H (Echinochloa crus-galli var. crus-galli) [3]","herbicidal effect, G (Setaria viridis) (Setaria viridis)","herbicidal effect, P (Stellaria media) (Stellaria media)","herbicidal effect, I (Avena fatua) (Avena fatua)","herbicidal effect, L (Apera spica-venti.) (Apera spica-venti.)","herbicidal effect, F (Digitaria ciliaris) (Digitaria ciliaris)","herbicidal effect, N (Amaranthus retroflexus) (Amaranthus retroflexus)","herbicidal effect, O (Chenopodium album) (Chenopodium album)","herbicidal effect, M (Abutilon theophrasti) (Abutilon theophrasti)","herbicidal effect, J (Alopecurus myosuroides) (Alopecurus myosuroides)","herbicidal effect, R (Veronica persica) (Veronica persica)","herbicidal effect, Q (Galium spurium) (Galium spurium)","herbicidal effect, K (Lolium multiflorum Lam.) (Lolium multiflorum Lam.)",also measured
CC(C)c1nnc2c(C(=O)Nc3ncn[nH]3)ccc(C(F)(F)F)n12 [4-004],0 (Herbicidal ratio of 5% or less (almost no effect)),0 (Herbicidal ratio of 5% or less (almost no effect)),0 (Herbicidal ratio of 5% or less (almost no effect)),0 (Herbicidal ratio of 5% or less (almost no effect)),0 (Herbicidal ratio of 5% or less (almost no effect)),0 (Herbicidal ratio of 5% or less (almost no effect)),0 (Herbicidal ratio of 5% or less (almost no effect)),0 (Herbicidal ratio of 5% or less (almost no effect)),0 (Herbicidal ratio of 5% or less (almost no effect)),0 (Herbicidal ratio of 5% or less (almost no effect)),0 (Herbicidal ratio of 5% or less (almost no effect)),0 (Herbicidal ratio of 5% or less (almost no effect)),0 (Herbicidal ratio of 5% or less (almost no effect)),4 (Herbicidal ratio of 70% or more and less than 90%),0 (Herbicidal ratio of 5% or less (almost no effect)),0 (Herbicidal ratio of 5% or less (almost no effect)),0 (Herbicidal ratio of 5% or less (almost no effect)),0 (Herbicidal ratio of 5% or less (almost no effect)),0 (Herbicidal ratio of 5% or less (almost no effect)),
CC#Cc1nnc2c(C(=O)Nc3nnco3)ccc(C(F)(F)F)n12 [1-160],,,,,,,,,,,,,,,,,,,,"b: effect on crop, directly sowed Oryza sativa [1, 4]: 0 (Herbicidal ratio of 5% or less (almost no effect)); c: effect on crop, Zea mays (Zea mays; [4]): 0 (Herbicidal ratio of 5% or less (almost no effect)); e: effect on crop, Triticum aestivum (Triticum aestivum; [4]): 0 (Herbicidal ratio of 5% or less (almost no effect)); g: effect on crop, Brassica campestris L. (Brassica campestris L.; [4]): 0 (Herbicidal ratio of 5% or less (almost no effect)); d: effect on crop, Glycine max (Glycine max; [4]): 2 (Herbicidal ratio of 20% or more and less than 40%); f: effect on crop, Beta vulgaris ssp. vulgaris [2, 4]: 2 (Herbicidal ratio of 20% or more and less than 40%); H: herbicidal effect on Echinochloa crus-galli var. crus-galli [3, 4]: 2 (Herbicidal ratio of 20% or more and less than 40%); G: herbicidal effect on Setaria viridis (Setaria viridis; [4]): 0 (Herbicidal ratio of 5% or less (almost no effect)); P: herbicidal effect on Stellaria media (Stellaria media; [4]): 3 (Herbicidal ratio of 40% or more and less than 70%); I: herbicidal effect on Avena fatua (Avena fatua; [4]): 0 (Herbicidal ratio of 5% or less (almost no effect)); L: herbicidal effect on Apera spica-venti. (Apera spica-venti.; [4]): 0 (Herbicidal ratio of 5% or less (almost no effect)); F: herbicidal effect on Digitaria ciliaris (Digitaria ciliaris; [4]): 1 (Herbicidal ratio of 5% or more and less than 20%); N: herbicidal effect on Amaranthus retroflexus (Amaranthus retroflexus; [4]): 1 (Herbicidal ratio of 5% or more and less than 20%); O: herbicidal effect on Chenopodium album (Chenopodium album; [4]): 4 (Herbicidal ratio of 70% or more and less than 90%); M: herbicidal effect on Abutilon theophrasti (Abutilon theophrasti; [4]): 3 (Herbicidal ratio of 40% or more and less than 70%); J: herbicidal effect on Alopecurus myosuroides (Alopecurus myosuroides; [4]): 0 (Herbicidal ratio of 5% or less (almost no effect)); R: herbicidal effect on Veronica persica (Veronica persica; [4]): 1 (Herbicidal ratio of 5% or more and less than 20%); Q: herbicidal effect on Galium spurium (Galium spurium; [4]): 0 (Herbicidal ratio of 5% or less (almost no effect)); K: herbicidal effect on Lolium multiflorum Lam. (Lolium multiflorum Lam.; [4]): 0 (Herbicidal ratio of 5% or less (almost no effect))"
Cc1nnc(NC(=O)c2ccc(C(F)(F)F)n3c(=O)n(C)nc23)o1 [6-001],0 (Herbicidal ratio of 5% or less (almost no effect)),0 (Herbicidal ratio of 5% or less (almost no effect)),0 (Herbicidal ratio of 5% or less (almost no effect)),0 (Herbicidal ratio of 5% or less (almost no effect)),0 (Herbicidal ratio of 5% or less (almost no effect)),3 (Herbicidal ratio of 40% or more and less than 70%),1 (Herbicidal ratio of 5% or more and less than 20%),2 (Herbicidal ratio of 20% or more and less than 40%),4 (Herbicidal ratio of 70% or more and less than 90%),0 (Herbicidal ratio of 5% or less (almost no effect)),0 (Herbicidal ratio of 5% or less (almost no effect)),1 (Herbicidal ratio of 5% or more and less than 20%),3 (Herbicidal ratio of 40% or more and less than 70%),4 (Herbicidal ratio of 70% or more and less than 90%),3 (Herbicidal ratio of 40% or more and less than 70%),0 (Herbicidal ratio of 5% or less (almost no effect)),2 (Herbicidal ratio of 20% or more and less than 40%),2 (Herbicidal ratio of 20% or more and less than 40%),0 (Herbicidal ratio of 5% or less (almost no effect)),
